From patent publication EP2607478A1, “Phenanthroline treated MSC” (Universiteit Twente, priority 2011, dated 2013)

Tested on: MSCs
Assay: Whole genome expression analysis (Illumina microarray) of treated MSCs
Type: cell-based, Human
Protocol: MSCs were seeded in T25 flasks at 5000 cells/cm^2 and allowed to attach overnight in proliferation medium. […] After 48 hours, RNA was isolated as described above. From 500 ng of RNA, cRNA was synthesized using the Illumina TotalPrep RNA amplification Kit (Ambion), according to the manufacturer's protocol and the quality of RNA and cRNA was verified on a Bioanalyzer 2100 (Agilent). Microarrays were performed using Illumina HT-12 v4 expression Beadchips, according to the manufacturer's protocol. Briefly, 750 ng of cRNA was hybridized on the array overnight after which the array was washed and blocked. Then, by addition of streptavidin Cy-3 a fluorescent signal was developed. Arrays were scanned on an Illumina iScan reader and raw intensity values were background corrected in GenomeStudio (Illumina). Further data processing and statistical testing were performed with R and Bioconductor statistical software (www.bioconductor.org), using package lumi. Raw intensity values were transformed using variance stabilization and a quantile normalization was performed. A linear modelling approach with empirical Bayesian methods, as implemented in Limma package (54), was applied for differential expression analysis of the resulting probe-level expression values. A gene list, containing only those genes with an absolute 1.5-fold change between different treatments, was uploaded to Ingenuity Pathway Analysis (IPA) software and used for core analysis. Pathways or networks with a p-value of 0.05 were considered statistically significant.

c1cnc2c(c1)ccc1cccnc12 [PHE, 1, 10-phenanthroline]
logFC(D142_PHE - D142_BAS) (ProbeID ILMN_1827736, no gene name printed): 2,01
logFC(D142_PHE - D142_BAS) (ProbeID ILMN_1843198, no gene name printed): 4,02
logFC(D142_PHE - D142_BAS) (ProbeID ILMN_1854469, no gene name printed): -2,31
logFC(D142_PHE - D142_BAS) (ProbeID ILMN_1862909, no gene name printed): 2,60
logFC(D142_PHE - D142_BAS) (ProbeID ILMN_1890614, no gene name printed): 3,60
logFC(D142_PHE - D142_BAS) LDLR (ProbeID ILMN_2053415): -2,22
logFC(D142_PHE - D142_BAS) PTGS2 (ProbeID ILMN_2054297): 2,59
logFC(D142_PHE - D142_BAS) GAS1 (ProbeID ILMN_2062701): -2,22
logFC(D142_PHE - D142_BAS) GOLGA8B (ProbeID ILMN_2103547): 2,29
logFC(D142_PHE - D142_BAS) EEF1A2 (ProbeID ILMN_2108735): 4,24
logFC(D142_PHE - D142_BAS) NPM3 (ProbeID ILMN_2110252, PHE vs BAS): -2,68
logFC(D142_PHE - D142_BAS) CTHRC1 (ProbeID ILMN_2117508, PHE vs BAS): -3,58
logFC(D142_PHE - D142_BAS) LRIG1 (ProbeID ILMN_2128795): 2,70
logFC(D142_PHE - D142_BAS) CYBASC3 (ProbeID ILMN_2129505): -2,00
logFC(D142_PHE - D142_BAS) IGFBP5 (ProbeID ILMN_2132982): 2,36
logFC(D142_PHE - D142_BAS) POL3S (ProbeID ILMN_2133187): 2,59
logFC(D142_PHE - D142_BAS) PLIN2 (ProbeID ILMN_2138765): 3,41
logFC(D142_PHE - D142_BAS) HIST2H2AA3 (ProbeID ILMN_2144426): 3,65
logFC(D142_PHE - D142_BAS) TNC (ProbeID ILMN_2145670, PHE vs BAS): -2,96
logFC(D142_PHE - D142_BAS) GBP1 (ProbeID ILMN_2148785, PHE vs BAS): -2,77
logFC(D142_PHE - D142_BAS) SERPINB2 (ProbeID ILMN_2150851): 2,73
logFC(D142_PHE - D142_BAS) SERPINB2 (ProbeID ILMN_2150856): 2,92
logFC(D142_PHE - D142_BAS) ALDH1B1 (ProbeID ILMN_2150894, PHE vs BAS): -3,56
logFC(D142_PHE - D142_BAS) MNS1 (ProbeID ILMN_2157240): -2,02
logFC(D142_PHE - D142_BAS) GPI (ProbeID ILMN_2173451): 2,47
logFC(D142_PHE - D142_BAS) MT1E (ProbeID ILMN_2173611): -2,20
logFC(D142_PHE - D142_BAS) IL8 (ProbeID ILMN_2184373): 6,28
logFC(D142_PHE - D142_BAS) PFKFB3 (ProbeID ILMN_2186061): 5,23
logFC(D142_PHE - D142_BAS) RRAD (ProbeID ILMN_2186137): 3,18
logFC(D142_PHE - D142_BAS) GDF15 (ProbeID ILMN_2188862): 4,56
logFC(D142_PHE - D142_BAS) MELK (ProbeID ILMN_2212909): -2,05
logFC(D142_PHE - D142_BAS) PGK1 (ProbeID ILMN_2216852): 2,97
logFC(D142_PHE - D142_BAS) PTGR1 (ProbeID ILMN_2225537): 2,90
logFC(D142_PHE - D142_BAS) SLAMF9 (ProbeID ILMN_2227248): 2,67
logFC(D142_PHE - D142_BAS) PCDH18 (ProbeID ILMN_2229877, PHE vs BAS): -2,41
logFC(D142_PHE - D142_BAS) BEX1 (ProbeID ILMN_2234697, PHE vs BAS): -4,70
logFC(D142_PHE - D142_BAS) LEPR (ProbeID ILMN_2234956, PHE vs BAS): -2,85
logFC(D142_PHE - D142_BAS) KIAA0101 (ProbeID ILMN_2285996, PHE vs BAS): -3,27
logFC(D142_PHE - D142_BAS) UBE2C (ProbeID ILMN_2301083): -2,20
logFC(D142_PHE - D142_BAS) VCAM1 (ProbeID ILMN_2307903, PHE vs BAS): -5,09
logFC(D142_PHE - D142_BAS) WFDC3 (ProbeID ILMN_2308903): 2,87
logFC(D142_PHE - D142_BAS) MAFF (ProbeID ILMN_2322375): 3,04
logFC(D142_PHE - D142_BAS) RORA (ProbeID ILMN_2322498): 2,13
logFC(D142_PHE - D142_BAS) CALD1 (ProbeID ILMN_2324002): -2,11
logFC(D142_PHE - D142_BAS) TXNRD1 (ProbeID ILMN_2324421): 2,30
logFC(D142_PHE - D142_BAS) MSRB3 (ProbeID ILMN_2332553): -2,12
logFC(D142_PHE - D142_BAS) PORCN (ProbeID ILMN_2337058): 3,30
logFC(D142_PHE - D142_BAS) AK3L1 (ProbeID ILMN_2338038): 2,61
logFC(D142_PHE - D142_BAS) METRNL (ProbeID ILMN_2342066): 2,12
logFC(D142_PHE - D142_BAS) FMO3 (ProbeID ILMN_2344283): -2,27
logFC(D142_PHE - D142_BAS) BIRC5 (ProbeID ILMN_2349459, PHE vs BAS): -2,71
logFC(D142_PHE - D142_BAS) MAD1L1 (ProbeID ILMN_2358069): 2,09
logFC(D142_PHE - D142_BAS) TPM1 (ProbeID ILMN_2360710): -2,27
logFC(D142_PHE - D142_BAS) VLDLR (ProbeID ILMN_2361862): 3,53
logFC(D142_PHE - D142_BAS) SLC16A3 (ProbeID ILMN_2364022): 2,29
logFC(D142_PHE - D142_BAS) SMOX (ProbeID ILMN_2367258): 2,05
logFC(D142_PHE - D142_BAS) CXCR7 (ProbeID ILMN_2371458): 2,54
logFC(D142_PHE - D142_BAS) MUC1 (ProbeID ILMN_2371911): 2,27
logFC(D142_PHE - D142_BAS) ATF3 (ProbeID ILMN_2374865): 2,39
logFC(D142_PHE - D142_BAS) VEGFA (ProbeID ILMN_2375879): 4,30
logFC(D142_PHE - D142_BAS) KCNK2 (ProbeID ILMN_2376953, PHE vs BAS): -3,27
logFC(D142_PHE - D142_BAS) PTPRF (ProbeID ILMN_2380163): 2,36
logFC(D142_PHE - D142_BAS) AKR1A1 (ProbeID ILMN_2380771): -2,14
logFC(D142_PHE - D142_BAS) P4HA2 (ProbeID ILMN_2381697): 2,27
logFC(D142_PHE - D142_BAS) CA12 (ProbeID ILMN_2382942): 2,61
logFC(D142_PHE - D142_BAS) ANGPTL4 (ProbeID ILMN_2386444): 3,59
logFC(D142_PHE - D142_BAS) EPSTI1 (ProbeID ILMN_2388547, PHE vs BAS): -2,93
logFC(D142_PHE - D142_BAS) PSMB8 (ProbeID ILMN_2390299, PHE vs BAS): -2,40
logFC(D142_PHE - D142_BAS) UBE2E3 (ProbeID ILMN_2390338): -2,31
logFC(D142_PHE - D142_BAS) FBLN2 (ProbeID ILMN_2390919): -2,30
logFC(D142_PHE - D142_BAS) TAGLN (ProbeID ILMN_2400935, PHE vs BAS): -3,44
logFC(D142_PHE - D142_BAS) FAM13A (ProbeID ILMN_2401258): 2,84
logFC(D142_PHE - D142_BAS) RIOK3 (ProbeID ILMN_2404135): 2,47
logFC(D142_PHE - D142_BAS) ARNTL (ProbeID ILMN_2405305): 2,05
logFC(D142_PHE - D142_BAS) PODXL (ProbeID ILMN_2413158): 3,57
logFC(D142_PHE - D142_BAS) LOC100130790 (ProbeID ILMN_3181489): 3,33
logFC(D142_PHE - D142_BAS) LOC727803 (ProbeID ILMN_3212373): -2,02
logFC(D142_PHE - D142_BAS) LOC730415 (ProbeID ILMN_3228688): 2,25
logFC(D142_PHE - D142_BAS) LOC390557 (ProbeID ILMN_3233930): 2,45
logFC(D142_PHE - D142_BAS) LOC100133609 (ProbeID ILMN_3237270): 2,75
logFC(D142_PHE - D142_BAS) BEND5 (ProbeID ILMN_3237448): 2,26
logFC(D142_PHE - D142_BAS) C4orf47 (ProbeID ILMN_3237511): 2,24
logFC(D142_PHE - D142_BAS) FBXL11 (ProbeID ILMN_3237966): 2,06
logFC(D142_PHE - D142_BAS) DLGAP5 (ProbeID ILMN_3239771): -2,24
logFC(D142_PHE - D142_BAS) HIST2H2AA4 (ProbeID ILMN_3242900): 3,75
logFC(D142_PHE - D142_BAS) FAM180A (ProbeID ILMN_3245418): 2,34
logFC(D142_PHE - D142_BAS) LOC730743 (ProbeID ILMN_3247132, PHE vs BAS): -2,35
logFC(D142_PHE - D142_BAS) GAPDHL6 (ProbeID ILMN_3267451): 2,90
logFC(D142_PHE - D142_BAS) LOC100132510 (ProbeID ILMN_3280402): 2,32
logFC(D142_PHE - D142_BAS) LOC644237 (ProbeID ILMN_3283772): 2,73
logFC(D142_PHE - D142_BAS) LOC729708 (ProbeID ILMN_3305475): 2,12
logFC(D142_PHE - D142_BAS) LOC730246 (ProbeID ILMN_3305949): -2,06
logFC(D142_PHE - D142_BAS) MIR1974 (ProbeID ILMN_3308961): 3,51
